Measured values from patent US20260308158A1, “TARGETING RNAS ASSOCIATED WITH TAUOPATHIES WITH SMALL MOLECULES” (University of Florida Research Foundation, Incorporated, priority 2023, published 2026).

Assays:
[1] = test system: WT MAPT mini-gene pre-mRNA; assay: Chem-CLIP / C-Chem-CLIP in HeLa cells transfected with WT mini-gene; assay type: cell-based; conditions: HeLa, WT mini-gene
Method: Measuring Cellular Occupancy by Chem-CLIP and C-Chem-CLIP. LAN5 cells were grown to ~80% confluency in 100 mm diameter dishes. HeLa cells were transfected as described in the Luciferase Reporter Assay to Study Exon 10 Alternative Splicing except they were re-plated in 100 mm diameter dishes and grown to ~80% confluency (~1 day). The cells were then treated with 1.5 μM of 3 or 4 for 12 h. For C-Chem-CLIP, dilutions of competing compounds 1 or 2 were pre-incubated with cells for 12 h prior to adding 3. After addition of 3, the cells were incubated for an additional 12 h. After the treatment period, whether for Chem-CLIP or C-Chem-CLIP studies, the cells were washed with 10 mL of 1×DPBS. Ice-cold 1×DPBS (10 mL) was then added to the plate followed by irradiation with 365 nm light in a UV Stratalinker 2400 (Stratagene). Cells were scraped with a cell scraper, transferred to a 15 mL conical vial, and collected by centrifugation. Total RNA was extracted using TRIzol LS Reagent (Invitrogen) per the manufacturer's protocol. […]
RT-qPCR was performed on RNA samples before and after pull-down as described in Real-Time Quantitative PCR to enable calculation of fold enrichment in the pulled down samples. Relative fold enrichment of tau pre-mRNA was measured using Equation 3: […]

DDPAC model RNA = assay: Optical melting, DDPAC RNA; assay type: binding; conditions: 2 at 1.5 μM
Method: Optical Melting Experiments. The thermal stabilities of WT, DDPAC, and DDPAC+I17T model RNAs were analyzed by optical melting in the presence or absence of compound 1 or 2 as previously described.^18 The RNAs (2 μM) were heated to 95° C. in 1×PBS buffer and slowly cooled to room temperature. The samples were then cooled to 15° C. in the presence of compound 1 (10 μM; 0.1% (v/v) DMSO), 2 (1.5 μM; 0.1% (v/v) DMSO) or vehicle (0.1% (v/v) DMSO) and then heated to 85° C. at a rate of 1° C. per min. Absorbance as a function of temperature was measured at 260 nm using a Beckman Coulter DU800 UV/vis spectrophotometer. Melting curves were fitted with MeltWin 3.5.^31

[2] = test system: DDPAC I17T MAPT exon 10 mini-gene luciferase reporter; assay: Luciferase reporter assay, DDPAC I17T mutant mini-gene in HeLa cells; assay type: cell-based; conditions: Homo sapiens, 48 h, 5 μM (highest dose), read-out: reduction of luciferase activity
Method: Luciferase-reporter Assay to Study Exon 10 Alternative Splicing. The exon 10 mini-genes, both WT and DDPAC and mutant thereof, fused to firefly luciferase, have been previously described.^18 HeLa cells were seeded in 60 mm diameter dishes and incubated for 12-16 h to 70% confluency. They were then transfected with WT, WT+I17T, DDPAC, or DDPAC+I17T luciferase reporter minigenes using JetPrime (Polyplus Transfection) per the manufacturer's recommended protocol and incubated for 4 h. After transfection, the cells were collected by trypsinization and re-seeded in 96-well plates at 0.2×10^5 cells per well, followed by treatment of compounds after 4 h. Compound stocks prepared in DMSO were diluted in growth medium and added to cells with final DMSO concentration at 0.1% (v/v). After a 48 h treatment period, the cells were washed with 1× DPBS. Each well was added with a mixture of 10 μL WST-1 reagent and 90 μL of growth medium. After incubation at 37° C. for 45 min, absorbance was measured at 450 and 690 nm. A690 as background was subtracted from A450 to obtain A450′. […] The plate was incubated at room temperature for 20 min and the luminescence was measured with a […] plate reader (1000 ms integration time). The resulted luminescence was normalized to A450′.

htau mice = assay: Nesting activity, htau mice; assay type: in vivo, htau mouse; conditions: scale 1-5, 100 mg/kg p.o. q.o.d.
Method: Nesting Activity. From Day 1 to Day 20, mice were individually housed and nesting material from the previous day was removed. An intact 3.0 g nestlet was placed within each cage. Around 15 h later, the resulting nest was photographed for qualitative scoring, and the untorn nestlet was weighed if present. All nest images and weights were analyzed by a blinded individual and based on published criteria.^43 In brief, nesting is scored on a rating scale of 1-5 where if the nestlet is over 90% intact, it is given a nestlet score is 1 (Poor; FIG. 4C). When the nestlet is partially torn but >50% remains, the nestlet score is 2; a score of 3 is assigned when 50-90% of the nestlet is torn but spread around the cage and no identifiable nest site is found (Medium; FIG. 4C). When more than 90% of the nestlet is torn and the nest is identifiable but flat, the nestlet score is 4. When a near perfect nest is built and the wall is higher than the mouse's body, it is assigned a nestlet score of 5 (Good; FIG. 4C).

COc1cc(N)ncc1CCCN(C)CCCn1cnc2c3ccccc3n(C)c2c1=O [Compound 2, 3-(3-((3-(6-amino-4-methoxypyridin-3-yl)propyl)(methyl)amino)propyl)-5-methyl-3,5-dihydro-4H-pyrimido[5,4-b]indol-4-one]
competition of the interaction of 3 with reporter [1]: competed dose dependently | increase of Tm (DDPAC model RNA): 1.36±0.11 °C | inhibition at 5 µM [2]: ~15% | nesting score at Day 2 (htau mice): 2.6±1.1 | nesting score at Day 20 (htau mice): 4.5±0.4
